Measured values as given in publication PMC5553193 (Journal of the American Chemical Society, 2015).
Positions count from the first letter of the chain named. pKd: −log10 of the molar value. Peptide text beside a SMILES is read from it. * marks the point of attachment. X1 = O=C(C=NOCCO[C@H]1O[C@H](CO)[C@@H](O)[C@H](O)[C@@H]1O)*

Key:
DC-SIGN [1] = target: T1, DC-SIGN (Homo sapiens, UniProt Q9NNX6); conditions: read-out: KD with DC-SIGN; literature value; cited from earlier work
T1 sequence (Q9NNX6 1-404): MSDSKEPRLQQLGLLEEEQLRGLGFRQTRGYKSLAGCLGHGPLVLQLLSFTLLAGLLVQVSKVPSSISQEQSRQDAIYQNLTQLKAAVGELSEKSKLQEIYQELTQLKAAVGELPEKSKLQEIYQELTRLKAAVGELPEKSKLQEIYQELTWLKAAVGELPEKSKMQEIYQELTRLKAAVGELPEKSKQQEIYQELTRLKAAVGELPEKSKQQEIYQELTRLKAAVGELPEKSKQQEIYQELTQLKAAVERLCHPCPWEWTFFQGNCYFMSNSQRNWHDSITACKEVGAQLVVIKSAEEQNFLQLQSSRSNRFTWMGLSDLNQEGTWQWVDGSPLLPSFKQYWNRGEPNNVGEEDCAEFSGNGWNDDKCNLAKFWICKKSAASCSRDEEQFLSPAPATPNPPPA

ConA [2] = target: T2, ConA (Canavalia ensiformis, UniProt P02866); conditions: read-out: KD with ConA; literature value; cited from earlier work
LcH = target: T3, LcH (Lens culinaris, UniProt P02870); assay: ITC with LcH; format: binding
T3 sequence (P02870 31-211 limits assumed): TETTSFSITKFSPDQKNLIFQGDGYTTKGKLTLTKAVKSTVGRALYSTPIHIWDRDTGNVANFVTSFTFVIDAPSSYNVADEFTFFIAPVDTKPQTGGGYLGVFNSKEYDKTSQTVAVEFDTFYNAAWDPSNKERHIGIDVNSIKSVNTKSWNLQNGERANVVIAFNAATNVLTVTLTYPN
T3 sequence (P02870 218-269 limits assumed): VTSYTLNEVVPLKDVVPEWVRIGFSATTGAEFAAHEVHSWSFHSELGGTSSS

PSA = target: T4, PSA (Pisum sativum, UniProt P02867); assay: ITC with PSA; format: binding
T4 sequence (P02867 31-211 limits assumed): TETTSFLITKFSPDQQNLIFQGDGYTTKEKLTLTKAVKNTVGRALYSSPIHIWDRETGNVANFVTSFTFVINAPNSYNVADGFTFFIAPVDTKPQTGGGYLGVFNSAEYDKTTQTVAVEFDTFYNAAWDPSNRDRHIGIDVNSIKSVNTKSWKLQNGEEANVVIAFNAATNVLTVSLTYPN
T4 sequence (P02867 218-269 limits assumed): T3 sequence (P02870 218-269 limits assumed) with N7S, E8D, P11S, F32Y, H38L, G47S

ConA [3] = target: T2, ConA; format: binding
DC-SIGN [4] = target: T1, DC-SIGN; assay: ESI-MS binding assay with DC-SIGN

SMILES: OC[C@H]1O[C@H](OC[C@H]2O[C@H](O)[C@@H](O)[C@@H](O[C@H]3O[C@H](CO)[C@@H](O)[C@H](O)[C@@H]3O)[C@@H]2O)[C@@H](O)[C@@H](O)[C@@H]1O [Man3, α-Man-(1→3)-[α-Man-(1→6)]-α-Man]
- pKd (DC-SIGN [1]): 3.23
- pKd (ConA [2]): 5.59

SMILES: CC(C)C[C@H](NC(=O)[C@H](CC(=O)O)NC(=O)[C@H](Cc1ccc(O)cc1)NC(=O)[C@H](Cc1c[nH]c2ccccc12)NC(=O)C=NOCCO[C@H]1O[C@H](CO)[C@@H](O)[C@H](O)[C@@H]1O)C(=O)N[C@@H](Cc1ccccc1)C(N)=O [L37, Man-WYDLF] (X1-WYDLF-NH2; N-terminus assumed)
- fold enhancement of binding of monosaccharide moiety by peptide fragment (LcH): 2 fold
- fold enhancement of binding of monosaccharide moiety by peptide fragment (PSA): 2 fold
- fold enhancement of binding of monosaccharide moiety by peptide fragment (ConA [3]; ITC): 35 fold

SMILES: CC[C@H](C)[C@H](NC(=O)[C@H](CC(N)=O)NC(=O)[C@H](CC(=O)O)NC(=O)[C@H](Cc1ccccc1)NC(=O)[C@H](CC(C)C)NC(=O)[C@H](CC(=O)O)NC(=O)[C@H](Cc1ccc(O)cc1)NC(=O)[C@H](Cc1c[nH]c2ccccc12)NC(=O)C=NOCCO[C@H]1O[C@H](CO)[C@@H](O)[C@H](O)[C@@H]1O)C(=O)N[C@@H](CC(N)=O)C(=O)N[C@@H](CO)C(N)=O [L30, Man-WYDLFDNINS] (X1-WYDLFDNINS-NH2; N-terminus assumed)
- fold enhancement in affinity (lower KD) over MeMan (ConA [3]): 33 fold

SMILES: NC(=O)[C@H](CC(=O)O)NC(=O)[C@H](Cc1ccc(O)cc1)NC(=O)[C@H](Cc1c[nH]c2ccccc12)NC(=O)C=NOCCO[C@H]1O[C@H](CO)[C@@H](O)[C@H](O)[C@@H]1O [L20]
- enhanced affinity for DC-SIGN (DC-SIGN [4]): enhanced affinity
